Experimental data published in US10065928B2, “Quinolinone compound and use thereof” (Sunshine Lake Pharma Co., Ltd., priority 2014, dated 2018).

Each compound was assayed on erythropoietin (EPO) production in Hep3B cells (assay: Activity in inducing erythropoietin (EPO) production in vitro, Hep3B cells, EPO ELISA). Conditions: Homo sapiens, 24 h, EPO in supernatant by ELISA.
Format: cell-based
Experimental: The activities of compounds of the invention in inducing erythropoietin (EPO) production were assessed by using human live cancer cell strain Hep3B (ATCC: American type culture collection, Manassas, Va.). Hep3B cells seeded in a 96-well plate with a density of 2.5×10^4 cells/well were cultivated overnight in DMEM culture medium (Dulbecco's Modified Eagle's Medium) at 37° C. in the presence of 10% fetal bovine serum (FBS). The next day, the supernatant liquid of culture medium was abandoned by suction, and to the residue was added fresh DMEM (containing 0.5% DMSO, 0.5% FBS) containing compound of the invention with a series of concentrations (0.31160.00 μM) or containing solvent used for comparison. The cells were cultivated at 37° C. for 24 h. The supernatant liquid was collected and the EPO concentration of the supernatant was quantified by using human EPO ELISA kit (Abcam). The activity of each compound in inducing erythropoietin (EPO) production was represented by half maximal effective concentration (EC50).
For Cn1c(=O)c(C(=O)NCC(=O)O)c(O)c2cc(S(=O)(=O)n3ccc4ccccc43)ccc21 [Example 7, 2-(6-((1H-indol-1-yl)sulfonyl)-4-hydroxy-1-methyl-2-oxo-1,2-dihydroquinoline-3-carboxamido)acetic acid], the EC50 was 6.83 µM.
Cn1c(=O)c(C(=O)NCC(=O)O)c(O)c2cc(F)c(Oc3ccccc3)cc21 [Example 39, 2-(6-fluoro-4-hydroxy-1-methyl-2-oxo-7-phenoxy-1,2-dihydroquinoline-3-carboxamido)acetic acid] was tested, and the EC50 was 4.89 µM.
Work on Cn1c(=O)c(C(=O)NCC(=O)O)c(O)c2ccc(Oc3ccc(Cl)cc3Cl)cc21 [Example 31, 2-(7-(2,4-dichlorophenoxy)-4-hydroxy-1-methyl-2-oxo-1,2-dihydroquinoline-3-carboxamido)acetic acid] yielded an EC50 of 4.15 µM.
Compound Cn1c(=O)c(C(=O)NCC(=O)O)c(O)c2ccc(Oc3cc(F)cc(F)c3)cc21 [Example 18, 2-(7-(3,5-difluorophenoxy)-4-hydroxy-1-methyl-2-oxo-1,2-dihydroquinoline-3-carboxamido)acetic acid] has an EC50 of 6.28 µM.
In the case of COc1ccccc1Oc1ccc2c(O)c(C(=O)NCC(=O)O)c(=O)n(C)c2c1 [Example 38, 2-(4-hydroxy-7-(2-methoxyphenoxy)-1-methyl-2-oxo-1,2-dihydroquinoline-3-carboxamido)acetic acid], the EC50 is reported as 8.85 µM.
Cn1c(=O)c(C(=O)NCC(=O)O)c(O)c2ccc(Oc3cc(Cl)ccc3Cl)cc21 [Example 35, 2-(7-(2,5-dichlorophenoxy)-4-hydroxy-1-methyl-2-oxo-1,2-dihydroquinoline-3-carboxamido)acetic acid] showed an EC50 of 2.25 µM.
O=C(O)CNC(=O)c1c(O)c2ccc(Oc3ccccc3)cc2n(CCC2CC2)c1=O [Example 42, 2-(1-(cyclopropylethyl)-4-hydroxy-2-oxo-7-phenoxy-1,2-dihydroquinoline-3-carboxamido)acetic acid] showed an EC50 of 3.34 µM.
Work on Cn1c(=O)c(C(=O)NCC(=O)O)c(O)c2ccc(Oc3c(F)cccc3F)cc21 [Example 16, 2-(7-(2,6-difluorophenoxy)-4-hydroxy-1-methyl-2-oxo-1,2-dihydroquinoline-3-carboxamido)acetic acid] yielded an EC50 of 8.83 µM.
With CN(C(=O)c1ccc2c(c1)c(O)c(C(=O)NCC(=O)O)c(=O)n2C)C(c1ccccc1)c1ccccc1 [Example 11, 2-(6-(benzhydryl(methyl)carbamoyl)-4-hydroxy-1-methyl-2-oxo-1,2-dihydroquinoline-3-carboxamido)acetic acid] the EC50 was 10.2 µM.
Cn1c(=O)c(C(=O)NCC(=O)O)c(O)c2cc(Oc3ccc4ccccc4c3)ccc21 [Example 9, 2-(4-hydroxy-1-methyl-6-(naphthalen-2-yloxy)-2-oxo-1,2-dihydroquinoline-3-carboxamido)acetic acid] gave an EC50 of 2.52 µM.
For Cn1c(=O)c(C(=O)NCC(=O)O)c(O)c2ccc(Oc3ccc(F)cc3F)cc21 [Example 15, 2-(7-(2,4-difluorophenoxy)-4-hydroxy-1-methyl-2-oxo-1,2-dihydroquinoline-3-carboxamido)acetic acid], the EC50 was 6.92 µM.
Compound Cn1c(=O)c(C(=O)NCC(=O)O)c(O)c2ccc(Oc3cccc(Cl)c3Cl)cc21 [Example 30, 2-(7-(2,3-dichlorophenoxy)-4-hydroxy-1-methyl-2-oxo-1,2-dihydroquinoline-3-carboxamido)acetic acid] has an EC50 of 1.97 µM.
Cn1c(=O)c(C(=O)NCC(=O)O)c(O)c2ccc(Oc3cc(F)ccc3Cl)cc21 [Example 27, 2-(7-(2-chloro-5-fluorophenoxy)-4-hydroxy-1-methyl-2-oxo-1,2-dihydroquinoline-3-carboxamido)acetic acid] showed an EC50 of 6.85 µM.
In the case of Cn1c(=O)c(C(=O)NCC(=O)O)c(O)c2ccc(Oc3cccc(Cl)c3)cc21 [Example 12, 2-(7-(3-chlorophenoxy)-4-hydroxy-1-methyl-2-oxo-1,2-dihydroquinoline-3-carboxamido)acetic acid], the EC50 is reported as 4.24 µM.
For Cn1c(=O)c(C(=O)NCC(=O)O)c(O)c2ccc(Oc3cccc(Cl)c3F)cc21 [Example 20, 2-(7-(3-chloro-2-fluorophenoxy)-4-hydroxy-1-methyl-2-oxo-1,2-dihydroquinoline-3-carboxamido)acetic acid], the EC50 was 3.75 µM.
With Cn1c(=O)c(C(=O)NCC(=O)O)c(O)c2ccc(Oc3cc(F)cc(Cl)c3)cc21 [Example 26, 2-(7-(3-chloro-5-fluorophenoxy)-4-hydroxy-1-methyl-2-oxo-1,2-dihydroquinoline-3-carboxamido)acetic acid] the EC50 was 13.5 µM.
COc1ccc(Oc2ccc3c(O)c(C(=O)NCC(=O)O)c(=O)n(C)c3c2)cc1 [Example 36, 2-(4-hydroxy-7-(4-methoxyphenoxy)-1-methyl-2-oxo-1,2-dihydroquinoline-3-carboxamido)acetic acid] gave an EC50 of 2.95 µM.
Compound Cn1c(=O)c(C(=O)NCC(=O)O)c(O)c2ccc(Oc3ccc(F)c(Cl)c3)cc21 [Example 29, 2-(7-(3-chloro-4-fluorophenoxy)-4-hydroxy-1-methyl-2-oxo-1,2-dihydroquinoline-3-carboxamido)acetic acid] has an EC50 of 10.2 µM.
Work on Cn1c(=O)c(C(=O)NCC(=O)O)c(O)c2cc(Oc3ccccc3)ccc21 [Example 5, 2-(4-hydroxy-1-methyl-2-oxo-6-phenoxy-1,2-dihydroquinoline-3-carboxamido)acetic acid] yielded an EC50 of 4 µM.
For Cn1c(=O)c(C(=O)NCC(=O)O)c(O)c2ccc(Oc3cccc(F)c3Cl)cc21 [Example 24, 2-(7-(2-chloro-3-fluorophenoxy)-4-hydroxy-1-methyl-2-oxo-1,2-dihydroquinoline-3-carboxamido)acetic acid], the EC50 was 9.53 µM.
Cn1c(=O)c(C(=O)NCC(=O)O)c(O)c2ccc(Oc3c(F)cccc3Cl)cc21 [Example 23, 2-(7-(2-chloro-6-fluorophenoxy)-4-hydroxy-1-methyl-2-oxo-1,2-dihydroquinoline-3-carboxamido)acetic acid] showed an EC50 of 9.23 µM.
Cn1c(=O)c(C(=O)NCC(=O)O)c(O)c2ccc(Oc3cc(Cl)cc(Cl)c3)cc21 [Example 34, 2-(7-(3,5-dichlorophenoxy)-4-hydroxy-1-methyl-2-oxo-1,2-dihydroquinoline-3-carboxamido)acetic acid] gave an EC50 of 20.2 µM.
With Cn1c(=O)c(C(=O)NCC(=O)O)c(O)c2ccc(Oc3ccc(Cl)c(Cl)c3)cc21 [Example 33, 2-(7-(3,4-dichlorophenoxy)-4-hydroxy-1-methyl-2-oxo-1,2-dihydroquinoline-3-carboxamido)acetic acid] the EC50 was 2.56 µM.
For Cn1c(=O)c(C(=O)NCC(=O)O)c(O)c2ccc(Oc3ccncc3)cc21 [Example 43, 2-(4-hydroxy-1-methyl-2-oxo-7-(pyridin-4-yloxy)-1,2-dihydroquinoline-3-carboxamido)acetic acid], the EC50 was 28.9 µM.
Cn1c(=O)c(C(=O)NCC(=O)O)c(O)c2ccc(Oc3ccc(Cl)cc3F)cc21 [Example 21, 2-(7-(4-chloro-2-fluorophenoxy)-4-hydroxy-1-methyl-2-oxo-1,2-dihydroquinoline-3-carboxamido)acetic acid] was tested, and the EC50 was 5.75 µM.
For Cn1c(=O)c(C(=O)NCC(=O)O)c(O)c2ccc(Oc3ccc(Cl)c(F)c3)cc21 [Example 25, 2-(7-(4-chloro-3-fluorophenoxy)-4-hydroxy-1-methyl-2-oxo-1,2-dihydroquinoline-3-carboxamido)acetic acid], the EC50 was 10.2 µM.
Work on Cn1c(=O)c(C(=O)NCC(=O)O)c(O)c2ccc(Oc3ccccc3Cl)cc21 [Example 48, 2-(7-(2-chlorophenoxy)-4-hydroxy-1-methyl-2-oxo-1,2-dihydroquinoline-3-carboxamido)acetic acid] yielded an EC50 of 6.6 µM.
For Cn1c(=O)c(C(=O)NCC(=O)O)c(O)c2ccc(Oc3ccccc3OC(F)(F)F)cc21 [Example 40, 2-(4-hydroxy-1-methyl-2-oxo-7-(2-(trifluoromethoxy)phenoxy)-1,2-dihydroquinoline-3-carboxamido)acetic acid], the EC50 was 4.06 µM.
Cn1c(=O)c(C(=O)NCC(=O)O)c(O)c2ccc(Oc3c(Cl)cccc3Cl)cc21 [Example 32, 2-(7-(2,6-dichlorophenoxy)-4-hydroxy-1-methyl-2-oxo-1,2-dihydroquinoline-3-carboxamido)acetic acid] was tested, and the EC50 was 3.63 µM.
Cn1c(=O)c(C(=O)NCC(=O)O)c(O)c2ccc(Oc3ccc(F)c(F)c3)cc21 [Example 17, 2-(7-(3,4-difluorophenoxy)-4-hydroxy-1-methyl-2-oxo-1,2-dihydroquinoline-3-carboxamido)acetic acid] gave an EC50 of 3.16 µM.
In the case of Cn1c(=O)c(C(=O)NCC(=O)O)c(O)c2ccc(Oc3ccc4ccccc4c3)cc21 [Example 8, 2-(4-hydroxy-1-methyl-7-(naphthalen-2-yloxy)-2-oxo-1,2-dihydroquinoline-3-carboxamido)acetic acid], the EC50 is reported as 1.63 µM.
Cn1c(=O)c(C(=O)NCC(=O)O)c(O)c2ccc(Oc3cccc(F)c3F)cc21 [Example 14, 2-(7-(2,3-difluorophenoxy)-4-hydroxy-1-methyl-2-oxo-1,2-dihydroquinoline-3-carboxamido)acetic acid] gave an EC50 of 10.2 µM.
Cn1c(=O)c(C(=O)NCC(=O)O)c(O)c2ccc(Oc3cccc(F)c3)cc21 [Example 46, 2-(7-(3-fluorophenoxy)-4-hydroxy-1-methyl-2-oxo-1,2-dihydroquinoline-3-carboxamido)acetic acid] was tested, and the EC50 was 3.61 µM.
With Cn1c(=O)c(C(=O)NCC(=O)O)c(O)c2ccc(Oc3ccccc3F)cc21 [Example 45, 2-(7-(2-fluorophenoxy)-4-hydroxy-1-methyl-2-oxo-1,2-dihydroquinoline-3-carboxamido)acetic acid] the EC50 was 6.02 µM.
